Test results published in US20230357162A1, “COMPOUNDS, COMPOSITIONS AND METHODS” (Denali Therapeutics Inc., priority 2020, published 2023).

Test system: IL-1β secretion, THP-1 cells
Assay: IL-1β secretion assay in PMA-differentiated THP-1 cells stimulated with LPS and nigericin (ELISA readout)
Format: cell-based
Settings: Homo sapiens, THP-1, inhibition of IL-1β secretion, 25 ng/mL LPS then nigericin
Description: Compounds as provided herein were tested in the following assay. Cell culture medium employed contained RPMI 1640 medium (89%), FBS (10%), Pen/Strep (1%), and 2-mercaptoethanol (0.05 mM). Freezing medium was made up of 90% FBS and 10% DMSO. THP-1 cells were removed from the liquid nitrogen and placed into a 37° C. water bath to thaw, until signs of ice dissipated. The cells were then added to 9 mL of warm cell culture medium and centrifuged for 5 minutes at 1000 rpm. The supernatant was discarded, and the cells were resuspended in new cell culture medium. THP-1 cells were then split and cultured in the cell culture medium, being passaged every 2-3 days with the cell density will be maintained between 5×10^5 and 1.5×10^6 viable cells/mL.
PMA was dissolved in DMSO to make a stock solution at 5 mg/ml and stored in 10 µl aliquots at -20° C. for single use. PMA is added to normal growth medium. LPS was diluted with 1 mL of water solution to provide a 1 mg/mL stock solution and stored in 15 µl aliquots at -20° C. for single use. Nigericin is diluted in ice cold 100% ethanol to 5 mg/ml (6.7 mM) and stored in 75 µL aliquots at -20° C. for single use. Serum-free media contains RPMI 1640 medium (99%), Pen/Strep (1%), and 2-mercaptoethanol (0.05 mM). The two control conditions used to qualify and normalize test compound dose-response curves were as follows: High Control = 25 ng/mL LPS, 5 µM Nigericin, 0.5% DMSO, Low Control = 25 ng/mL, LPS, 0.5% DMSO.
THP-1 cells were diluted to provide a suspension at a concentration of 1.0×10^6 cells/mL with the total volume of suspension required to enable the desired number of assay plates. The growth media was supplemented with PMA (5 ng/mL final concentration) and the cells were incubated at 37° C. under a humidified atmosphere of 5% CO2 for 40 h.
All media was carefully aspirated from each culture flask. The cells were washed carefully with 1x DPBS. The cells were then briefly digested with trypsin LE for 5 minutes at 23° C. and immediately resuspended in cell growth media. After resuspension, the cells were centrifuged at 1000 rpm for 3 minutes and the supernatant was discarded. The cells were resuspended in DPBS and once again centrifuged at 1000 rpm for 5 minutes. The supernatant was discarded and the cell pellet was resuspended in serum-free media supplemented with LPS (25 ng/mL final concentration) to enable the distribution of 30 K THP-1 cells within 45 µL of media into each well of 384-well PDL-coated plates. The 384-well plates were then incubated at 37° C. under a humidified atmosphere of 5% CO2 for 2 h. Following this period, test compounds were dispensed by Tecan across the desired concentration range with all wells normalized to a final 0.5 % DMSO concentration. The plates were then then incubated at 37° C. under a humidified atmosphere of 5% CO2 for 1 h. Following this period, 5 µL of the […] nigericin stock solution was added to each of the appropriate wells and plates were centrifuged at 1000 rpm for 30 seconds. The plates were the immediately reintroduced to the incubator at 37° C. under a humidified atmosphere of 5% CO2 for 2 h. After this time, 35 µL/well of supernatant was collected and transferred into v-bottom plate and centrifuged at 1000 rpm for 1 minute. These supernatant aliquots were analyzed using an IL-Iβ detection kit as described below. If needed, the test samples could be snap frozen and stored at -80° C. until analyzed.
To prepare each ELISA plate, capture antibody (mAb Mt175) was diluted with PBS to a final concentration of 2 µg/mL and then 20 µL of this solution was added to each well of the ELISA plate. Each plate was allowed to incubate overnight at 4° C. The next day, the capture antibody solution was removed and discarded. Each ELISA plate was washed 4 times with PBST followed by the addition of 25 µL/well of blocking buffer (Licor-927-40010) supplemented with 0.1% Tween 20. Each ELISA plate was then allowed to incubate for 1 hour at 23° C. […]

Row | IC50 (class column of Table 3) | IC50 (numeric column of Table 3) | Structure (SMILES)
1 | < 10 µM | 0.741 µM | CC(C)c1nn(CC(=O)Nc2ncncc2F)c(=O)c2c(F)cc(Br)cc12 [Example 92, 2-(6-bromo-8-fluoro-1-oxo-4-propan-2-ylphthalazin-2-yl)-N-(5-fluoropyrimidin-4-yl)acetamide]
2 | < 10 µM | 2.47 µM | O=C(Cn1nc(CF)c2ccc(Br)cc2c1=O)Nc1ncc(F)cn1 [Example 143, 2-[7-bromo-4-(fluoromethyl)-1-oxophthalazin-2-yl]-N-(5-fluoropyrimidin-2-yl)acetamide]
3 | < 10 µM | 6.99 µM | O=C(Cn1nc(C(F)F)c2ccc(Br)cc2c1=O)Nc1ncc(F)cn1 [Example 104, 2-[7-bromo-4-(difluoromethyl)-1-oxophthalazin-2-yl]-N-(5-fluoropyrimidin-2-yl)acetamide]
4 | < 10 µM | 0.499 µM | CC(C)c1nn(CC(=O)Nc2cnccn2)c(=O)c2ccc(Br)cc12 [Example 71, 2-(6-bromo-1-oxo-4-propan-2-ylphthalazin-2-yl)-N-pyrazin-2-ylacetamide]
5 | < 10 µM | 0.689 µM | O=C(Cn1nc(C(F)F)c2cc(C(F)(F)F)ccc2c1=O)Nc1ncc(F)cn1 [Example 25, 2-[4-(difluoromethyl)-1-oxo-6-(trifluoromethyl)phthalazin-2-yl]-N-(5-fluoropyrimidin-2-yl)acetamide]
6 | < 10 µM | 0.186 µM | O=C(Cn1nc(OCF)c2cc(Br)ccc2c1=O)Nc1ncc(F)cn1 [Example 137, 2-[6-bromo-1-oxo-4-(fluoromethoxy)phthalazin-2-yl]-N-(5-fluoropyrimidin-2-yl)acetamide]
7 | > 15 µM | 17.1 µM | O=C(Cn1nc(OC(F)C2CC2)c2cc(Br)ccc2c1=O)Nc1ncc(F)cn1 (stereo not drawn) [Example 168, 2-[6-bromo-4-[cyclopropyl(fluoro)methoxy]-1-oxophthalazin-2-yl]-N-(5-fluoropyrimidin-2-yl)acetamide]
8 | < 10 µM | 5.95 µM | CC(C)Oc1nn(CC(=O)Nc2ncc(F)cn2)c(=O)c2ccc(Br)cc12 [Example 155, 2-(6-bromo-1-oxo-4-propan-2-yloxyphthalazin-2-yl)-N-(5-fluoropyrimidin-2-yl)acetamide]
9 | < 10 µM | 0.018 µM | CC(C)c1nn(CC(=O)Nc2ncncc2F)c(=O)c2ccc(I)cc12 [Example 20, N-(5-fluoropyrimidin-4-yl)-2-(6-iodo-1-oxo-4-propan-2-ylphthalazin-2-yl)acetamide]
10 | < 10 µM | 20.1 µM | CC(C)c1nn(CC(=O)NCc2ccccc2)c(=O)c2ccc(Br)cc12 [Example 129, N-benzyl-2-(6-bromo-1-oxo-4-propan-2-ylphthalazin-2-yl)acetamide]
11 | < 10 µM | 0.455 µM | CC(F)COc1nn(CC(=O)Nc2ncc(F)cn2)c(=O)c2ccc(Br)cc12 (stereo not drawn) [Example 162]
12 | < 10 µM | 0.191 µM | CC(F)c1nn(CC(=O)Nc2ncc(F)cn2)c(=O)c2ccc(Br)c(F)c12 (stereo not drawn) [Example 144, 2-[6-bromo-5-fluoro-4-(1-fluoroethyl)-1-oxophthalazin-2-yl]-N-(5-fluoropyrimidin-2-yl)acetamide]

The remaining lines, values behind:

Row | Structure (SMILES) | IC50 (class column of Table 3) | IC50 (numeric column of Table 3)
13 | CC(C)c1nn(CC(=O)Nc2ncc(F)cc2F)c(=O)c2ccc(Br)cc12 [Example 38, 2-(6-bromo-1-oxo-4-propan-2-ylphthalazin-2-yl)-N-(3,5-difluoropyridin-2-yl)acetamide] | < 10 µM | 0.913 µM
14 | CC(C)c1nn(CC(=O)Nc2ccc(C#N)cn2)c(=O)c2ccc(Br)cc12 [Example 119, 2-(6-bromo-1-oxo-4-propan-2-ylphthalazin-2-yl)-N-(5-cyanopyridin-2-yl)acetamide] | < 10 µM | 0.163 µM
15 | O=C(Cn1nc(C(F)F)c2nc(C(F)(F)F)ccc2c1=O)Nc1ncc(F)cn1 [Example 105, 2-[8-(difluoromethyl)-5-oxo-2-(trifluoromethyl)pyrido[2,3-d]pyridazin-6-yl]-N-(5-fluoropyrimidin-2-yl)acetamide] | < 10 µM | 0.614 µM
16 | CC(O)c1nn(CC(=O)Nc2ncccn2)c(=O)c2ccc(Br)cc12 (single isomer, unassigned) [Example 101, 2-(6-bromo-4-(1-hydroxyethyl)-1-oxophthalazin-2(1H)-yl)-N-(pyrimidin-2-yl)acetamide] | < 10 µM | 1.45 µM
17 | CC(C)c1nn(CC(=O)Nc2ccc(C(F)(F)F)nc2)c(=O)c2ccc(Br)cc12 [Example 45, 2-(6-bromo-1-oxo-4-propan-2-ylphthalazin-2-yl)-N-[6-(trifluoromethyl)pyridin-3-yl]acetamide] | < 10 µM | 1.19 µM
18 | CC(C)c1nn(CC(=O)NC2CCOC2)c(=O)c2ccc(Br)cc12 (stereo not drawn) [Example 52, 2-(6-bromo-1-oxo-4-propan-2-ylphthalazin-2-yl)-N-(oxolan-3-yl)acetamide] | < 10 µM | 2.53 µM
19 | CC(C)c1nn(CC(=O)Nc2cnc(Cl)c(F)c2)c(=O)c2ccc(Br)cc12 [Example 112, 2-(6-bromo-1-oxo-4-propan-2-ylphthalazin-2-yl)-N-(6-chloro-5-fluoropyridin-3-yl)acetamide] | < 10 µM | 1.12 µM
20 | CC(C)c1nn(CC(=O)Nc2ncccn2)c(=O)c2ccc(Br)cc12 [Example 39, 2-(6-bromo-1-oxo-4-propan-2-ylphthalazin-2-yl)-N-pyrimidin-2-ylacetamide] | < 10 µM | 0.054 µM
21 | CC(C)c1nn(CC(=O)NCC2CCCCO2)c(=O)c2ccc(Br)cc12 (stereo not drawn) [Example 84, 2-(6-bromo-1-oxo-4-propan-2-ylphthalazin-2-yl)-N-(oxan-2-ylmethyl)acetamide] | < 10 µM | 3.71 µM
22 | O=C(Cn1nc(C(F)F)c2cc(Br)ccc2c1=O)Nc1ncccn1 [Example 93, 2-[6-bromo-4-(difluoromethyl)-1-oxo-phthalazin-2-yl]-N-pyrimidin-2-yl-acetamide] | < 10 µM | 0.14 µM
23 | O=C(Cn1nc([C@H]2C[C@@H]2F)c2cc(Br)ccc2c1=O)Nc1ncc(F)cn1 [Example 167, 2-[6-bromo-4-[2-trans-fluorocyclopropyl]-1-oxophthalazin-2-yl]-N-(5-fluoropyrimidin-2-yl)acetamide] | > 15 µM | 16.1 µM
24 | CC1(C)CC(Oc2nn(CC(=O)Nc3ncc(F)cn3)c(=O)c3ccc(Br)cc23)C1 [Example 156, 2-[6-bromo-4-(3,3-dimethylcyclobutoxy)-1-oxo-phthalazin-2-yl]-N-(5-fluoropyrimidin-2-yl)acetamide] | < 10 µM | 0.07 µM
25 | CC(C)c1nn(CC(=O)NCC2CCCOC2)c(=O)c2ccc(Br)cc12 (stereo not drawn) [Example 57, 2-(6-bromo-1-oxo-4-propan-2-ylphthalazin-2-yl)-N-(oxan-3-ylmethyl)acetamide] | < 10 µM | 4.4 µM
26 | C[C@H]1C[C@H](Oc2nn(CC(=O)Nc3ncc(F)cn3)c(=O)c3ccc(Br)cc23)C1 [Example 158, 2-[6-bromo-4-(3-trans-methylcyclobutoxy)-1-oxo-phthalazin-2-yl]-N-(5-fluoropyrimidin-2-yl)acetamide] | < 10 µM | 0.309 µM
27 | O=C(Cn1nc(C(F)(F)F)c2ccc(Br)cc2c1=O)Nc1ncncc1F [Example 132, 2-[7-bromo-1-oxo-4-(trifluoromethyl)phthalazin-2-yl]-N-(5-fluoropyrimidin-4-yl)acetamide] | > 15 µM | > 50 µM
